Measurements reported in the NIST ThermoML archive (doi:10.1016/j.jct.2009.03.005).

Assay: wn = mass fraction of the nth substance listed
Settings: 298.15 K, 101 kPa, Liquid; for viscosity: Capillary tube (Ostwald / Ubbelohde) method; for mass density: Pycnometric method

C[S+](C)[O-] [dimethyl sulfoxide] + CC#N
Settings | mass density [kg/m3] | viscosity [mPa·s]
w1 = 0.2 | 829.3 | 0.4196
w1 = 0.4 | 883.3 | 0.5249
w1 = 0.6 | 945.6 | 0.7147
